Laboratory results taken from paper PMC9661478 (Journal of Medicinal Chemistry, 2022).
pIC50: −log10 of the molar value.

Assays:
cleaved caspase 3 = assay: Cleaved caspase-3 immunoassay; settings: 40 mg/kg ip daily x3
GP2D cells = assay: GP2D proliferation assay; format: cell-based; settings: KRAS^G12D mutation
p-ERK = assay: pERK1/2 immunoassay; settings: 40 mg/kg ip daily x3
LS513 cells = assay: LS513 proliferation assay; format: cell-based; settings: KRAS^G12D mutation
[1] = Body weight changes in the NCI-H358 efficacy study; settings: both dose groups; less pronounced for the low dose group
[2] = target: GDP-KRAS^G12C::SOS1 interaction (Homo sapiens, UniProt P01116, G12C); assay: biochemical
Sequence of GDP-KRAS^G12C::SOS1 interaction (P01116 1-169 isoform P01116-2 G12C limits assumed): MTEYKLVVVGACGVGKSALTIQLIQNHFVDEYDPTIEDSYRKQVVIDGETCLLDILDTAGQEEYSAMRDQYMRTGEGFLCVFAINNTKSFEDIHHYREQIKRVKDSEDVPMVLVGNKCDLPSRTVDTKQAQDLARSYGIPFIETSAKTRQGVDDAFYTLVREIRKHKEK

Row | SMILES | induction of apoptosis (cleaved caspase 3) detectable in treated samples (cleaved caspase 3; 2 h post-dose on day 3) | induction of apoptosis (cleaved caspase 3) detectable in treated samples (cleaved caspase 3; 6 h post-dose on day 3) | concentration above which antiproliferative effect was observed, GP2D cells (GP2D cells) | reduction of p-ERK levels (p-ERK; 2 h post last dose) | reduction of p-ERK levels (p-ERK; 6 h post last dose) | concentration above which antiproliferative effect was observed, LS513 cells (LS513 cells) | body weight change compared to vehicle [1] | pIC50 [2]
1 | C=CC(=O)N1CCN(c2cc(-c3noc([C@@]4(C)CCCc5sc(N)c(C#N)c54)n3)nc(N3CCN(C)C[C@@H]3C)c2)CC1 [BI-0474, (4S)-2-Amino-4-(3-{6-[(2S)-2,4-dimethylpiperazin-1-yl]-4-[4-(prop-2-enoyl)piperazin-1-yl]pyridin-2-yl}-1,2,4-oxadiazol-5-yl)-4-methyl-4,5,6,7-tetrahydro-1-benzothiophene-3-carbonitrile] | one out of five | all five | above 4 μM | five-fold | six-fold | above 4 μM | some body weight loss | –
2 | C=CC(=O)N1CCN(c2cccc(-c3noc([C@@]4(C)CCCc5sc(N)c(C#N)c54)n3)c2)CC1 [Compound 22, (4S)-2-Amino-4-methyl-4-(3-{3-[4-(prop-2-enoyl)piperazin-1-yl]phenyl}-1,2,4-oxadiazol-5-yl)-4,5,6,7-tetrahydro-1-benzothiophene-3-carbonitrile] | – | – | – | – | – | – | – | ~5.52
